Measured values published in patent US8110547B2, “Compositions for buccal delivery of parathyroid hormone” (Emisphere Technologies, Inc., priority 2005, dated 2012).
Read-outs that look alike come from different tables or passages of the source.

Assays:
[1] = Serum PTH pharmacokinetics after oral and buccal administration to rats; assay type: in vivo, Male Sprague Dawley rats; details: rat, 0.2 mg/kg PTH with 200 mg/kg monosodium 4-MOAC; for AUC(0-inf) / AUC(0-t) / Cmax / Tmax: male, Sprague Dawley, serum, 0.2 mg/kg
Description: A stock solution of human recombinant PTH (1-34) was prepared by dissolving hPTH (1-34) (Eli Lilly, Indianapolis, Ind.) in deionized water to a concentration of 4 mg/ml. A stock solution of delivery agent was prepared by dissolving the delivery agent in deionized water. The pH of the resulting delivery agent solution was adjusted to between 7.5 and 8.5. A liquid buccal dosage form was prepared by mixing the PTH stock solution with the delivery agent stock solution immediately prior to dosing. For the present example, four dosage forms were prepared as described below.
The dosage forms were administered to Male Sprague Dawley rats, ranging in weight from about 250 g to about […]. Each rat was anesthesized with 2% isofiurane in pure oxygen during the whole experiment. The femoral artery was cannulated for blood sampling. The esophagus was ligated to prevent wallowing of the dosing solution. The trachea was intubated and the rat was provided with a constant flow of 2% isofiurane in oxygen.
The liquid dosage form was administered by inserting a T-shaped dosing tool into the mouth of the rat. The center of the dosing tool was placed under the tongue and the liquid dosage form (approximately […] body weight) was administered by syringe through the dosing tool, such that the dosage was distributed evenly throughout the buccal area. Following administration, the mouth was glued shut. Blood samples were drawn at predetermined periods from the femoral artery and assayed for PTH. The liquid dosage solution was allowed to remain in the buccal area for 90 minutes (e.g., the dosing duration). After 90 minutes the liquid dosage solution was removed from the buccal area by syringe.
The concentration of PTH was determined using a PTH (1-34) immunradiometric assay kit (Immutopics, San Clemente, Calif.). Samples were prepared by storage for 20 minutes between 2° C. and 8° C., followed by centrifugation at 10,000 G for 10 minutes to obtain serum. The serum concentration of PTH was than determined using a PTH (1-34) immunradiometric assay kit.
A liquid dosage form was prepared as described above wherein the dosage amount of monosodium 4-MOAC was 200 mg/kg and the dosage amount of PTH was 0.2 mg/kg. The dosage form was administered buccally as described above. Oral administration was carried out by anesthetizing the rat with a mixture of ketamine (44 mg/kg) and thorazine (1.5 mg/kg), followed by administration of the oral dosage by a gavaging trocar. The dosing duration for buccal administration was 5 and 60 minutes respectively. Blood samples were drawn from the rat as described above and the serum concentration of PTH was determined as described previously.

[2] = Pharmacokinetics after buccal, oral and subcutaneous administration of PTH to dogs; assay type: in vivo; details: dog; for AUC(0-t) / Cmax / Tmax / F rel: in vivo; for F rel: bioavailability relative to subcutaneous administration, read-out: AUC0−>t BA (%)
Description: The animal was moderately sedated using 0.4-0.8 mg/kg midazolam (IM) and 0.03-0.04 mg/kg medetomidine IV or IM in order to minimize the risk of the animal swallowing the test material. The level of sedation was continuously monitored and respiratory rate and general activity level was noted. Once adequately sedated, the dog was moved to a flat surface and an intravenous catheter was placed in the cephalic vein. For dose application, the dog was placed on its side with its head and jaw angled to maximally hold the test material in the mouth.
For an aqueous dosing solution, a syringe filled with the dosing solution (up to 1.5 ml) was placed sublingually and infused slowly up to 0.75 ml in an equal amount at the right and left space under the tongue of the dog. For sublingual tablet, the tablets were placed under the tongue and up to 1.5 ml of saline was administered to facilitate the sublingual dissolution. On one hour post-administration, any remaining formulation was removed by syringe aspiration and the area was rinsed once with saline solution and the saline solution that was then removed by a syringe aspiration.
Once the animal recovered from the sedatives, restraint-acclimated animals was restrained using a sling for the duration of the experiment. Blood samples were collected at specific time-points, i.e., 0, 0.25, 0.5, 1, 1.5, 2, 2.5 and up to 4 hours.
For comparison of the dosing route with intraoral delivery, an oral tablet dosing study was followed. The equivalent dose of drug and carrier was prepared to be the oral formulation of tablets that were gavaged, and 1 ml of water was administered into the gavaging tubing.
The final two columns in Table 2 show the relative bioavailability to subcutaneous administration by buccal and oral administrations of PTH to dog, and the respective coefficient of variations.

[3] = buccal 5 min dosing duration versus oral
[4] = buccal 60 min dosing duration versus oral
[5] = buccal (sublingual), formulation removed one hour post-administration

Molecule `CC[C@H](C)[C@H](NC(=O)[C@H](CCC(=O)O)NC(=O)[C@H](CO)NC(=O)[C@@H](NC(=O)[C@@H](N)CO)C(C)C)C(=O)N[C@@H](CCC(N)=O)C(=O)N[C@@H](CC(C)C)C(=O)N[C@@H](CCSC)C(=O)N[C@@H](Cc1cnc[nH]1)C(=O)N[C@@H](CC(N)=O)C(=O)N[C@@H](CC(C)C)C(=O)NCC(=O)N[C@@H](CCCCN)C(=O)N[C@@H](Cc1cnc[nH]1)C(=O)N[C@@H](CC(C)C)C(=O)N[C@@H](CC(N)=O)C(=O)N[C@@H](CO)C(=O)N[C@@H](CCSC)C(=O)N[C@@H](CCC(=O)O)C(=O)N[C@@H](CCCN=C(N)N)C(=O)N[C@H](C(=O)N[C@@H](CCC(=O)O)C(=O)N[C@@H](Cc1c[nH]c2ccccc12)C(=O)N[C@@H](CC(C)C)C(=O)N[C@@H](CCCN=C(N)N)C(=O)N[C@@H](CCCCN)C(=O)N[C@@H](CCCCN)C(=O)N[C@@H](CC(C)C)C(=O)N[C@@H](CCC(N)=O)C(=O)N[C@@H](CC(=O)O)C(=O)N[C@H](C(=O)N[C@@H](Cc1cnc[nH]1)C(=O)N[C@@H](CC(N)=O)C(=O)N[C@@H](Cc1ccccc1)C(=O)O)C(C)C)C(C)C` [PTH, human recombinant PTH (1-34)] has an AUC(0-inf) ([1]; buccal, 5 min dosing duration) of 2.8 ng·h/mL, an AUC(0-t) ([1]; buccal, 5 min dosing duration) of 0.975 ng·h/mL and a Cmax ([1]; buccal, 5 min dosing duration) of 1.7 ng/mL. The Tmax ([1]; buccal, 5 min dosing duration) was 5 min, the AUC(0-inf) ([1]; buccal, 60 min dosing duration) was 3.44 ng·h/mL and the AUC(0-t) ([1]; buccal, 60 min dosing duration) was 1.29 ng·h/mL. The Cmax ([1]; buccal, 60 min dosing duration) was 1.82 ng/mL, the Tmax ([1]; buccal, 60 min dosing duration) was 15 min and the AUC(0-inf) ([1]; po, oral gavage) was 2.62 ng·h/mL. The AUC(0-t) ([1]; po, oral gavage) was 10.4 ng·h/mL, the Cmax ([1]; po, oral gavage) was 1.43 ng/mL and the Tmax ([1]; po, oral gavage) was 15 min. The “Buccal:Oral AUC0−>t Ratio” value [1, 3] was 0.94, the “Buccal:Oral AUC0−>∞ Ratio” value [1, 3] was 1.1 and the “Buccal:Oral AUC0−>t Ratio” value [1, 4] was 1.2. The “Buccal:Oral AUC0−>∞ Ratio” value [1, 4] was 1.3, the “AUC0−>t BA (%)” value ([2]; subcutaneous (reference route)) was 100% and the AUC(0-t) ([2]; sc, subcutaneous) was 8.47 ng·h/mL. The Cmax ([2]; sc, subcutaneous) was 6.39 ± 1.97 ng/mL, the Tmax ([2]; sc, subcutaneous) was 26 min and the AUC(0-t) [2, 5] was 2.82 ng·h/mL. The Cmax [2, 5] was 3.35 ± 2.65 ng/mL, the Tmax [2, 5] was 62 min and the F rel ([2]; buccal) was 3.3%. For the same molecule, the AUC(0-t) ([2]; oral tablets gavaged) was 0.41 ng·h/mL, the Cmax ([2]; oral tablets gavaged) was 0.632 ± 0.568 ng/mL and the Tmax ([2]; oral tablets gavaged) was 23 min. For the same molecule, the F rel ([2]; oral) was 4.8%.
